US6410558B1, “Fungicides for the control of take-all disease of plants” (Monsanto Technology LLC, priority 1991, dated 2002)

Key:
Ggt = assay: In vivo Assay: control of Ggt on wheat grown in pots of Ggt-infested soil, root disease rating; set-up: species or system Gaeumannomyces graminis var. tritici; conditions: Gaeumannomyces graminis, 672 h; 0.5 mg active ingredient per pot; 'Bergen' or 'Anza' wheat in Ggt-infested soil; after four weeks; vs untreated control; read-out: In vivo, percent disease control
Method in brief: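 Wheat ('Bergen' or 'Anza') seeds in soil infested with Ggt-colonised oats (4% v/v) treated at 0.5 mg active ingredient per pot in acetone/water with Tween 20; five pots per treatment. After four weeks, seminal roots rated 0–5; trimmed mean of three replicates converted to percent disease control versus untreated.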

[1] = system: Gaeumannomyces graminis var. tritici (Ggt); assay: In vitro Assay: mycelial growth of Ggt on minimal media agar plates containing test compound; type: cell-based; conditions: Gaeumannomyces graminis, dark, 19-20° C., 4 to 5 days, diameter of mycelial growth; for inhibition at 0.1 ppm: 0.1 ppm in minimal media agar, read-out: In vitro (ppm) 0.1, Percent Inhibition; for inhibition at 1 ppm: 1 ppm in minimal media agar, read-out: In vitro (ppm) 1, Percent Inhibition; for inhibition at 10 ppm: 10 ppm in minimal media agar, read-out: In vitro (ppm) 10, Percent Inhibition
Method in brief: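 Ggt mycelial diameter read after 4 to 5 days in darkness at 19-20° C, from three 4-mm plugs placed on Czapek Dox minimal agar containing test compound delivered in acetone. Inhibition expressed as percent versus untreated plates, plug size (4 mm) subtracted from both.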

Row | SMILES | pest or weed control at 0.5 mg/pot (Ggt) | inhibition at 0.1 ppm [1] | inhibition at 1 ppm [1] | inhibition at 10 ppm [1]
1 | CCN(CC)C(=O)c1c(Cl)cccc1C[Si](C)(C)C [Example 166, 2-Chloro-N,N-diethyl-6-[(trimethylsilyl)methyl]benzamide] | 15% | 4% | < 0% | 73%
2 | CC(C)N(O)C(=O)c1c(Cl)cccc1[Si](C)(C)C [Example 167, 2-Chloro-N-hydroxy-N-(1-methylethyl)-6-(trimethylsilyl)benzamide] | 93% | 46% | 86% | 96%
3 | CCN(SC)C(=O)c1c(Cl)cccc1[Si](C)(C)C [Example 172, 2-Chloro-N-ethyl-N-(methylthio)-6-(trimethylsilyl)benzamide] | 99% | 94% | 100% | 100%
4 | CSNC(=O)c1c(Cl)cccc1[Si](C)(C)C [Example 174, 2-Chloro-N-(methylthio)-6-(trimethylsilyl)benzamide] | 0% | 12% | 65% | –
5 | C=CC[Si](C)(C)c1cccc(Cl)c1C(=O)NCC [Example 179, 2-Chloro-6-(dimethyl-2-propenylsilyl)-N-ethylbenzamide] | 97% | 85% | 88% | 91%
6 | CCNC(=O)c1c(Cl)cccc1[Si](C)(C)C(C)C [Example 180, 2-Chloro-6-[dimethyl(1-methylethyl)silyl]-N-ethylbenzamide] | 96% | 85% | 82% | 90%
7 | CCN(C(=O)c1ccccc1[Si](C)(C)C)C(OC)C(C)(C)C (stereo not shown) [Example 187, N-Ethyl-N-(1-methoxy-2,2-dimethylpropyl)-2-(trimethylsilyl)benzamide] | 24% | 13% | 27% | 97%
8 | CCNC(=O)c1ccccc1N(C)C(C)(C)C [Example 188, 2-[(1,1-Dimethylethyl)methylamino]-N-ethylbenzamide] | 15% | 29% | 71% | 100%
9 | CCNC(=O)c1c(C)cccc1N(C)C(C)(C)C [Example 191, N-Ethyl-2-[(1,1-dimethylethyl)methylamino]-6-methylbenzamide] | 88% | 60% | 88% | 88%
10 | CCNC(=O)c1c(Cl)cccc1NC(C)(C)C [Example 192, 2-Chloro-6-[(1,1-dimethylethyl)amino]-N-ethylbenzamide] | 99% | 86% | 95% | 95%
11 | CCNC(=O)c1c(Cl)ccc(Cl)c1[Si](C)(C)C [Example 200, 3,6-Dichloro-N-ethyl-2-(trimethylsilyl)benzamide] | 65% | 92% | 100% | 100%
12 | CCN(C(=O)c1c(Cl)cccc1[Si](C)(C)C)C(OC)C(C)(C)C (stereo not shown) [Example 201, 2-Chloro-N-ethyl-N-(1-methoxy-2,2-dimethylpropyl)-6-(trimethylsilyl)benzamide] | 65% | 31% | 50% | 100%
13 | C=C[Si](C)(c1ccccc1)c1cccc(Cl)c1C(=O)NCC (stereo not shown) [Example 202, 2-Chloro-6-(ethenylmethylphenylsilyl)-N-ethylbenzamide] | 3% | 33% | 58% | 88%
14 | C=CCONC(=O)c1c([Si](C)(C)C)ccc(Cl)c1Cl [Example 204, 2,3-Dichloro-N-(2-propenyloxy)-6-(trimethylsilyl)benzamide] | 43% | < 0% | < 0% | 74%
